According to patent US20260248922A1, “TREATMENT OF SIGNS, SYMPTOMS AND/OR COMPLICATIONS OF VIRAL, BACTERIAL, PROTOZOAL, AND/OR FUNGAL INFECTIONS BY HIGH PENETRATION PRODRUGS” (priority 2022, published 2026):
Like-named read-outs stand apart in the source and are kept apart here.

Details: rabbit

The cumulative amount of test compounds (1 h) | The cumulative amount of test compounds (2 h) | The cumulative amount of test compounds (4 h) | The cumulative amount of test compounds (8 h) | Structure (SMILES)
0.36 mg | 0.78 mg | 1.77 mg | 3.87 mg | CCN(CC)CCOC(=O)CC1(CS[C@H](CCc2ccccc2C(C)(C)O)c2cccc(C=Cc3ccc4ccc(Cl)cc4n3)c2)CC1.Cl [Example 3]
0.52 mg | 1.03 mg | 2.10 mg | 4.19 mg | Cl.O=C(OCC1CCCN1)C(c1ccc(OCc2ccc3ccccc3n2)cc1)C1CCCC1 (stereo not shown) [Example 6, (pyrrolidin-2-yl)methyl 2-cyclopentyl-2-[4-(quinolin-2-ylmethoxy)phenyl]acetate hydrochloride]
0.46 mg | 1.01 mg | 2.09 mg | 4.29 mg | CN(C)C(=O)CCSC(SCCC(=O)OCC1CCCN1)c1cccc(/C=C/c2ccc3ccc(Cl)cc3n2)c1.Cl (stereo not shown) [Example 7, (pyrrolidin-2-yl)methyl 3-[[3-[(E)-2-(7-chloroquinolin-2-yl)ethenyl]phenyl]-[3-(dimethylamino)-3-oxopropyl]sulfanylmethyl]sulfanylpropanoate hydrochloride]
0.50 mg | 1.02 mg | 2.18 mg | 4.48 mg | CCCc1c(OCCCS(=O)(=O)c2ccc(C(=O)CCC(=O)OCC3CCCN3)cc2)ccc(C(C)=O)c1O.Cl (stereo not shown) [Example 19]
0.000 mg | 0.001 mg | 0.001 mg | 0.002 mg | CCCc1c(OCCCS(=O)(=O)c2ccc(C(=O)CCC(=O)O)cc2)ccc(C(C)=O)c1O [Parent drug-1]
0.001 mg | 0.001 mg | 0.001 mg | 0.003 mg | CC(C)c1ccc2c(c1)c(SC(C)(C)C)c(CC(C)(C)C(=O)O)n2Cc1ccc(Cl)cc1 [Parent drug-2]
0.001 mg | 0.001 mg | 0.001 mg | 0.002 mg | CN(C)C(=O)CCS[C@H](SCCC(=O)O)c1cccc(/C=C/c2ccc3ccc(Cl)cc3n2)c1 [Parent drug-4]
0.001 mg | 0.001 mg | 0.001 mg | 0.002 mg | O=C(O)C(c1ccc(OCc2ccc3ccccc3n2)cc1)C1CCCC1 (stereo not shown) [Parent drug-5]

Structure (SMILES) | The cumulative amount of test compounds (1 h) | The cumulative amount of test compounds (2 h) | The cumulative amount of test compounds (4 h) | The cumulative amount of test compounds (8 h)
CC(c1cc2ccccc2s1)N(O)C(N)=O (stereo not shown) [Parent drug-6] | 0.001 mg | 0.001 mg | 0.001 mg | 0.003 mg
O=C(O)Cc1ccccc1Nc1c(Cl)cccc1Cl [Parent drug-8] | 0.000 mg | 0.001 mg | 0.002 mg | 0.003 mg
